# Source: US20260021296A1, “ION[…]” (KANEKA CORPORATION, priority 2023, published 2026)
# Assay: Evaluation of skin permeability of drug by iontophoresis in a vertical Franz cell
# Type: in vitro ADME, hairless rat (HWY/Slc)
# Description: The excised abdominal skin of a depilated male hairless rat (HWY/Slc, SPF, 5 weeks old) was punched into a 3.2 cm diameter circle and set in a vertical Franz cell. To the donor chamber of the Franz cell, 1.5 mL of a 0.5 wt % lanreotide acetate solution was added as a drug 31, and a zinc plate (0.5 cm×2 cm×0.5 mm) was immersed therein to form an anode 21. PBS was used as a receptor solution in the receptor chamber, and a silver/silver chloride rod (11 cm in length, 1 mm q in diameter) was inserted from the sampling port to form a cathode 22. The zinc plate and the silver/silver chloride rod were connected to the same power supply 10 and control unit 50 as those used in the skin irritability evaluation described above.
# Example 4: A pulse current with a frequency of […], a period of 100 ms, a duty ratio of 50%, a rectangular waveform, and a current density of 0.35 mA/cm^2 was applied.
# Comparative Example 6: Instead of a pulse current, a current with a substantially constant current value and a current density of 0.35 mA/cm^2 was applied.
# Comparative Example 7: No current was applied.
# In order to match the total time of current application (total amount of applied current), the current was applied for 6 hours in Example 4 and for 3 hours in Comparative Example 6. Example 4 and Comparative Examples 6 to 7 were all conducted with n=3.
# Three items were evaluated: the cumulative amount of drug permeated, the permeation rate, and the relationship between the cumulative permeation amount and the quantity of electricity.
# The receptor solution was sampled every hour, the amount of drug permeated through the skin was quantified by high-performance liquid chromatography (HPLC), and the above three items were evaluated with time. In Comparative Example 6, even after the end of the current application, the sampling was continued until 6 hours elapsed from the start of the test, as in Example 4 and Comparative Example 7. The HPLC measurement conditions are shown below.
structure (smiles),measurement,setting,value
CC(C)[C@@H]1NC(=O)[C@H](CCCCN)NC(=O)[C@@H](Cc2c[nH]c3ccccc23)NC(=O)[C@H](Cc2ccc(O)cc2)NC(=O)[C@@H](NC(=O)[C@H](N)Cc2ccc3ccccc3c2)CSSC[C@@H](C(=O)N[C@H](C(N)=O)[C@@H](C)O)NC1=O [lanreotide acetate],time from start of test at which permeation of the drug through the skin was observed,"Comparative Example 6: substantially constant current 0.35 mA/cm^2, applied 3 hours, 0.5 wt % solution, n=3",about 2 hours
same,"drug skin permeability (rank among current conditions, FIGS. 8 and 9)",Comparative Example 7: no current applied,lowest
same,time from start of test until which permeation of the drug through the skin was not observed,"Comparative Example 7: no current applied, 0.5 wt % solution, n=3",≥ 4 h
same,"drug skin permeability (rank among current conditions, FIGS. 8 and 9)","Example 4: pulse current 5 Hz, duty ratio 50%, 0.35 mA/cm^2",highest
same,time from start of test at which permeation of the drug through the skin was observed,"Example 4: pulse current 5 Hz, duty ratio 50%, rectangular waveform, 0.35 mA/cm^2, applied 6 hours, 0.5 wt % solution, n=3",about 2 hours
same,cumulative permeation amount of Example 4 relative to Comparative Example 6 at the same quantity of electricity (final),"pulse current (Example 4) versus constant current (Comparative Example 6), 0.35 mA/cm^2, FIG. 10",≥ 5 times
